Measurements taken from patent US9598434B2, “Benzazepine compound” (Astellas Pharma Inc., priority 2010, dated 2017).

Assays:
human 5-HT2C receptor = biological target: T1, human 5-HT2C receptor (Homo sapiens, UniProt P28335); test: Evaluation of 5-HT2C receptor agonist activity (intracellular calcium increase, FLIPR, CHO cells stably expressing the receptor); type: cell-based; settings: for EC50: CHO cells stably expressing INI type human 5-HT2C receptor, intracellular Ca increase, logistic regression, read-out: 5-HT2C agonist activity EC50; for Emax: CHO, read-out: 5-HT2C agonist activity Emax
T1 construct: expressed in transfected cells
T1 sequence (P28335 33-458): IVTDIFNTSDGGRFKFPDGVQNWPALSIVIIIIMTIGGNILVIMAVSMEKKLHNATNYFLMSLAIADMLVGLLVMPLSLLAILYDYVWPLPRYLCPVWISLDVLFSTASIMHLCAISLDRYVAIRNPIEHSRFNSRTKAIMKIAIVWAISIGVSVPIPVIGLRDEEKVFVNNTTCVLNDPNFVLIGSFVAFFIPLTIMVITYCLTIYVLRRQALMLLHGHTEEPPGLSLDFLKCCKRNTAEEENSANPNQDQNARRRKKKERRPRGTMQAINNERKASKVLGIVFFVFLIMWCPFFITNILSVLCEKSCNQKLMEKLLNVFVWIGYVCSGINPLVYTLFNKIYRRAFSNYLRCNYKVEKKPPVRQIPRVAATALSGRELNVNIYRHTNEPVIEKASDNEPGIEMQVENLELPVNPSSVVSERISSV
Method: The agonist activity of the compound of the formula (I) on the 5-HT2C receptor was confirmed by the method shown below.
The human 5-HT2C receptor agonist activity was evaluated by measuring the increase of the ligand-dependent intracellular calcium concentration. CHO cells which stably expressing a human 5-HT2C receptor were used. The receptor-expressing cells were prepared by transfecting the genes of the human 5-HT2C receptor (Accession numbers: AF498983 (5-HT2C)) into CHO cells (dihydrofolic acid-deficient strain, DS Pharma Biomedical Co., Ltd.)) using a pEF-BOS vector (Nucleic Acids Research, vol. 18, No. 17). After transcription, the 5-HT2C is known to be subjected to RNA editing to cause differences in three kinds of amino acids, resulting in fourteen receptor isoforms. Among them, cells stably expressing an INI type of 5-HT2C receptor which had not been subjected to editing were used. Cells used for evaluation were cultured in a 10% fetal bovine serum (FBS)-containing medium (trade name: α-MEM, Invitrogen) at 37° C. and 5% carbon dioxide. On the day before the evaluation, the cells were suspended in a serum-free medium (trade name: CD-CHO, Invitrogen) containing 8 mM L-glutamine (trade name: L-glutamine 200 mM, Invitrogen, added to the medium at a final concentration of 8 mM) and dispensed into a 96-well poly-D-lysine-coated plate (trade name: Biocoat PDL96W Black/Clear, Japan Becton, Dickinson and Company)) at 4×10^4 cells/well and cultured at 37° C. and 5% carbon dioxide overnight. A solution including a washing solution (mixture of Hank's Balanced Salt Solution (HBSS)-sodium hydroxide (NaOH), 20 mM 2-[4-(2-hydroxyethyl)-1-piperazinyl]ethanesulfonic acid (HEPES)-sodium hydroxide (NaOH), 2.5 mM probenecid, and 0.1% bovine serum albumin (BSA)), and a 4 μM fluorescent reagent (trade name: Fluo4-AM, Dojindo Co., Ltd.) was used as a loading buffer and the medium of the 96-well plate which had been cultured overnight was replaced with a loading buffer. After leaving to stand (with light-shielding) at room temperature for 3 hours, the cells were washed with a plate washer (trade name: ELx405, BioTek Instruments, Inc.) in which a washing solution had been set up. The plates of the washed cells were set up in a system for measuring a calcium (Ca) concentration in a cell (trade name: FLIPR, Molecular Devices, Inc.). In this device, a test compound that had been dissolved in dimethyl sulfoxide and diluted in the washing solution at a predetermined concentration was added and set up to measure a change in the Ca concentrations in a cell. The difference between a maximum value and a minimum value in the change of the intracellular Ca concentration was determined and kept as measurement data.
Taking the maximum reaction of the 5-HT (agonist action with addition of 5-HT 10 μM) as 100% and the reaction of a solvent alone as 0%, the efficacy (Emax (%)) and potency (EC50 (nM)) of the present invention compound to the maximum reaction of the 5-HT were calculated with a logistic regression method.

[1] = tested on: Hartley female guinea pigs; test: Measurement of external urethral sphincter electromyography; type: in vivo, guinea pig; settings: Cavia porcellus; intravenous administration at 3 mg/kg; urethane-anesthetized guinea pigs; activity after solvent taken as 100%; read-out: external urethral sphincter electromyography activity
Excerpt: The activating action of the compound of the formula (I) on the urethral sphincter electromyography was confirmed with the method shown below.
Hartley female guinea pigs with a body weight of 250 to 350 g were anesthetized with urethane (Sigma). The guinea pigs were fixed in a supine position and catheters (PE-50; Clay Adams) for administration of test compounds were inserted into the jugular vein. Further, a catheters (PE-160; Clay Adams), for an infusion of physiological saline into bladder and measurement of the intravesical pressure, were inserted through an incision into the dome of the bladder. Further, in order to measure the external urethral sphincter electromyography, two electrodes were inserted into both the left and right sides of the urethral opening to the urethral sphincter. The electrodes for measuring base voltages were placed under the skin of the hind part. The bladder catheter was branched over a three-way stopcock, and one was connected with a 50 mL syringe (Terumo) fixed to an infusion pump (Terumo). The other was connected to a pressure transducer (DX-100; Nihon Kohden Corporation) to transfer the signal of the transducer through an amplifier (AP-630G; Nihon Kohden Corporation) and a data acquisition system (PowerLab; AD Instruments) to a computer and record on a hard disk. The electrodes for electromyography measurement were connected to a control unit (JB-101J; Nihon Kohden Corporation) to transfer the signal through an amplifier (AP-651J; Nihon Kohden Corporation) and a data acquisition system (PowerLab; AD Instruments) to a computer and record on a hard disk. Further, the data were analyzed on the computer using a software (Chart; AD Instruments). […] The electromyography activity was analyzed by taking the lowest potential amplitude as a standard during the stabilization period and using the firing frequency over the standard amplitude as an indicator. At internals between the respective urinations (urine filling phase), the activity of the urethral sphincter electromyography was analyzed and its average value was calculated. After the stabilization period, the solvent and the test compound were administered at an increased dose at an interval of 40 minutes through the catheter placed into the jugular vein. The urethral sphincter electromyography activity after the administration of the solvent was taken as 100% and the urethral sphincter electromyography activity after the administration of the test compound was denoted as a percentage (%) of the electromyography activity after the administration of the solvent.

Row | SMILES | melting point | EC50 (human 5-HT2C receptor) | Emax (human 5-HT2C receptor) | response vs control in vivo at 3 mg/kg [1]
1 | O=C(O)/C=C/C(=O)O.c1ccc(N2CCOc3cc4c(cc32)CCNCC4)cc1 [Example 92] | 220 to 222 °C | 79 nM | 84% | –
2 | CCc1c2c(cc3c1N(CCOC)CCO3)CCNCC2.O=C(O)/C=C/C(=O)O [Example 98] | 159 to 163 °C | 4.4 nM | 107% | –
3 | COCC1(CN2CCOc3cc4c(c(C5CC5)c32)CCNCC4)CC1 [Example 105] | 166 to 167 °C | 8 nM | 111% | –
4 | CCOC(=O)N1CCCc2cc3c(c(C)c21)CCNCC3.O=C(O)C(=O)O [Example 108] | 185 to 186 °C | 5.9 nM | 106% | –
5 | COCCN1CCOc2cc3c(c(Br)c21)CCNCC3 [Example 135] | – | 2.9 nM | 112% | ≥ 200%
6 | CC1(C)CCNc2cc3c(cc21)CCNCC3 [Example 159] | 288 to 290 °C | – | – | –
7 | COCCN1CCOc2c1cc1c(c2Br)CCNCC1 [Example 176] | 107 to 110 °C | – | – | –
8 | CCCc1c2c(cc3c1N(C)CCO3)CCNCC2 [Example 225] | 151 to 152 °C | – | – | –
9 | CCc1c2c(cc3c1N(C)CCO3)CCNCC2 [Example 226] | 184 to 185 °C | – | – | –
10 | c1c2c(c(C3CC3)c3c1OCCN3C[C@H]1CCCO1)CCNCC2 [Example 227] | 156 to 158 °C | – | – | –
11 | COC(C)(C)CN1CCOc2cc3c(c(C4CC4)c21)CCNCC3 [Example 230] | 155 to 156 °C | – | – | –
12 | COCC(C)(C)CN1CCOc2cc3c(c(C4CC4)c21)CCNCC3 [Example 231] | 141 to 145 °C | – | – | –
13 | c1c2c(c(C3CC3)c3c1OCCN3CC1CCOCC1)CCNCC2 [Example 250] | 153 to 155 °C | – | – | –
14 | CC(C)CN1CCOc2cc3c(c(C4CC4)c21)CCNCC3 [Example 262] | 160 to 162 °C | – | – | –
15 | CCc1c2c(cc3c1N(CCCF)CCO3)CCNCC2 [Example 264] | 153 to 154 °C | – | – | –
16 | c1ccc(OCCN2CCOc3cc4c(c(C5CC5)c32)CCNCC4)cc1 [Example 268] | – | 0.92 nM | 99% | ≥ 200%
17 | Fc1ccc(F)c(CN2CCOc3cc4c(c(C5CC5)c32)CCNCC4)c1 [Example 283] | – | 1.7 nM | 90% | ≥ 200%
18 | CO[C@H](CF)CN1CCOc2cc3c(c(C4CC4)c21)CCNCC3 [Example 287] | – | 1 nM | 97% | ≥ 200%
19 | COCC(C)CN1CCOc2cc3c(cc21)CCNCC3 (centres unmarked) [Example 318] | 129 to 132 °C | – | – | –
